Measurements reported in patent US11639373B2, “Therapeutic and diagnostic agents for cancer” (TECHNISCHE UNIVERSITÄT MÜNCHEN, priority 2018, dated 2023).
Read-outs that look alike come from different tables or passages of the source. Non-standard residues stand in square brackets, D forms with d. Residues, ends and D or L forms follow the SMILES beside them. Groups on a side chain read outwards from the residue. ξ: configuration not given here. *: point of attachment. X3 = C[N+](C)(Cc1cn([C@@H](CCCNC(=N)N)C(=O)*)nn1)C[B-](F)(F)F; X2 = C[N+](C)(Cc1cn([C@@H](CCCCN)C(=O)*)nn1)C[B-](F)(F)F; DOTA = O=C(O)CN1CCN(CC(=O)O)CCN(CC(=O)*)CCN(CC(=O)O)CC1; X5 = CC(C)[C@H](C(=O)*)n1cc(C[N+](C)(C)C[B-](F)(F)F)nn1; X4 = C[N+](C)(Cc1cn(-c2ccc(C(=O)*)cc2)nn1)C[B-](F)(F)F; dTyr(3-I) = N[C@H](Cc1ccc(O)c(I)c1)C(=O)O; 2Nal = N[C@@H](Cc1ccc2ccccc2c1)C(=O)O; X1 = OCC1O[C@H](*)C(O)C(O)[C@H]1O; pS = N[C@@H](COP(=O)(O)O)C(=O)O; dNMeOrn = CN[C@H](CCCN)C(=O)O; 4Amb = NCc1ccc(C(=O)O)cc1; Mercaptoacetyl = O=C(CS)*; ξNMeOrn = CNC(CCCN)C(=O)O; 4Abz = Nc1ccc(C(=O)O)cc1; X6 = CC(=O)c1ccc(N*)cc1; Dap = NC[C@H](N)C(=O)O

Experiments:
human CXCR4 = target: T1, human CXCR4 (Homo sapiens, UniProt P61073); assay: Competitive binding assay to human CXCR4, Jurkat cells, [125I]FC131 radioligand
T1 construct: using CXCR4 positive Jurkat human T-cell leukemia cells; endogenous in cells; host or cells: Jurkat human T-cell leukemia cells

[1] = Lipophilicity, shake flask n-octanol/PBS; format: physicochemical; details: Table 1d
Experimental: To a solution of app. 0.5 MBq of radiolabeled peptide in 500 μL of PBS (pH 7.4), 500 μL of octanol were added (n=6). Vials were vortexed vigorously for 3 min. To achieve quantitative phase separation, the vials were centrifuged at 14,600×g for 6 min in a Biofuge 15 (Heraeus Sepatech, Osterode, Germany). The activity concentrations in 100 μL-samples of both the aqueous and the organic phase were measured in a γ-counter. Both the partition coefficient Pow, which is defined as the molar concentration ratio of a single species A between octanol and an aqueous phase at equilibrium, and log Pow, which is an important parameter used to characterize lipophilicity of a compound, were calculated.
Internalization and cell efflux studies of the respective ligands were performed using a previously published protocol (Poschenrieder et al., First 18F-Labeled Pentixafor-Based Imaging Agent for PET Imaging of CXCR4 Expression In Vivo. 2016). The distribution coefficients of the respective ^68Ga- and […] peptides in octanol and PBS buffer were determined applying the shake flask method as described previously (Weineisen et al., Synthesis and preclinical evaluation of DOTAGA-conjugated PSMA ligands for functional imaging and endoradiotherapy of prostate cancer. EJNMMI Research. 2014; 1:1-15).
Lipophilicity was measured using the shake flask method. The logarithm of the partition coefficient P, where P is the ratio of activity distribution of the respective ^68Ga/^177Lu-labeled peptide in n-octanol and PBS are listed in Table 2.

murine CXCR4 = target: T2, murine CXCR4 (Mus musculus, UniProt P70658); assay: Competitive binding assay to murine CXCR4, Eμ-Myc1080 cells, [125I]CPCR4.3 radioligand
T2 construct: The murine CXCR4 expressing cell line Ep-Myc1080; endogenous in cells; host or cells: Eμ-Myc1080 mouse B-cell lymphoma cells
Experimental: Competition studies addressing the human CXCR4 were performed using CXCR4 positive Jurkat human T-cell leukemia cells and ^125I-FC131 (^125I-2), addressing the murine CXCR4, Ep-Myc1080 mouse B-cell lymphoma cells and ^125I-CPCR4.3 (Demmer et al. A Conformationally Frozen Peptoid Boosts CXCR4 Affinity and Anti-HIV Activity. Angewandte Chemie International Edition. 2012; 51:8110-8113) as the radioligand were utilized as described previously (Poschenrieder et al., The influence of different metal-chelate conjugates of pentixafor on the CXCR4 affinity. EJNMMI research. 2016; 6:1-8).

[2] = Table 1b, 18F-labeling precursors, Jurkat cells, [^125I]FC-131, read-out: IC50 [nM] to hCXCR4
[3] = Table 1d, orn side chain modifications, read-out: IC50 [nM] to hCXCR4
[4] = Table 1b, ^natLu metal complexes, Jurkat cells, [^125I]FC-131, read-out: IC50 [nM] to hCXCR4 [^natLu]
[5] = ^natLu complexes, Jurkat cells, [^125I]FC131 0.1 nM, RT 2 h, mean ± SD (n = 3), read-out: IC50 [nM] for ^natLu-complexes and human CXCR4
[6] = Table 1b, ^natGa metal complexes, Jurkat cells, [^125I]FC-131, read-out: IC50 [nM] to hCXCR4 [^natGa]
[7] = Table 1b, ^natY metal complexes, Jurkat cells, [^125I]FC-131, read-out: IC50 [nM] to hCXCR4 [^natY]
[8] = ^natGa complexes, Jurkat cells, [^125I]FC131 0.1 nM, RT 2 h, mean ± SD (n = 3), read-out: IC50 [nM] for ^natGa-complexes and human CXCR4

T1 sequence (P61073 whole entry): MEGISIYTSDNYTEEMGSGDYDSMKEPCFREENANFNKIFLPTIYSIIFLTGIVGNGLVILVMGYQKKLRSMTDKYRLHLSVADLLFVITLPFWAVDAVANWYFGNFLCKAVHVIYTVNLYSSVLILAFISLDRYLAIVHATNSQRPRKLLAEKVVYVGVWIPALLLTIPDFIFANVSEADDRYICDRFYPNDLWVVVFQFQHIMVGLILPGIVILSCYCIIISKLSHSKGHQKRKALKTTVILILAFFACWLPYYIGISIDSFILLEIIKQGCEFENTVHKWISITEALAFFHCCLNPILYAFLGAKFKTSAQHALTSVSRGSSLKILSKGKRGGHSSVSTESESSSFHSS
T2 sequence (P70658 whole entry): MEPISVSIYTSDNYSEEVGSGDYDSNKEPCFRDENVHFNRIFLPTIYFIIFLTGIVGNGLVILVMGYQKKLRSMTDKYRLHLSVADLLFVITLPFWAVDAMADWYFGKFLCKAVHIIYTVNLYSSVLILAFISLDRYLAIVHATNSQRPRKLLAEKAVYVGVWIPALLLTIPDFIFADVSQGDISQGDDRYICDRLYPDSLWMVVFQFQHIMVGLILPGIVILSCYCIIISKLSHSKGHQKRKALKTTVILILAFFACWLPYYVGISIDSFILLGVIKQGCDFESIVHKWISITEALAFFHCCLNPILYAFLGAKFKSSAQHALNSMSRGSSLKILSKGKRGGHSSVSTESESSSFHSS

Molecule: CN1C(=O)[C@@H](Cc2ccc(O)c(I)c2)NC(=O)CNC(=O)[C@H](Cc2ccc3ccccc3c2)NC(=O)[C@H](CCCNC(=N)N)NC(=O)[C@H]1CCCNC(=O)c1ccc(-n2cc(C[N+](C)(C)C[B-](F)(F)F)nn2)cc1 [F1, cyclo[i-yorn′(AMBF3(methyl(1H-1,2,3-triazol-4-yl)4-amino)benzoyl-)RNaIG]] (cyclo([2Nal]G[dTyr(3-I)][dNMeOrn](X4)R))
- IC50 (human CXCR4; [2]): 134 ± 47 nM

Molecule: CC(C)[C@H](C(=O)NCC(=O)Nc1ccc(C(=O)NCCC[C@@H]2C(=O)N[C@@H](CCCNC(=N)N)C(=O)N[C@@H](Cc3ccc4ccccc4c3)C(=O)NCC(=O)N[C@H](Cc3ccc(O)c(I)c3)C(=O)N2C)cc1)n1cc(C[N+](C)(C)C[B-](F)(F)F)nn1 [F2, cyclo[i-yorn′(AMBF3(methyl(1H-1,2,3-triazol-4-yl)-vG-4-amino)benzoyl-)RNaIG]] (cyclo([2Nal]G[dTyr(3-I)][dNMeOrn]([4Abz-Gly-X5])R))
- IC50 (human CXCR4; [2]): 65.2 ± 10 nM

Molecule: CN1C(=O)[C@@H](Cc2ccc(O)cc2)NC(=O)CNC(=O)[C@H](Cc2ccc3ccccc3c2)NC(=O)[C@H](CCCNC(=N)N)NC(=O)[C@H]1CCCNC(=O)c1ccc(NC(=O)CNC(=O)[C@H](CCCNC(=N)N)n2cc(C[N+](C)(C)C[B-](F)(F)F)nn2)cc1 [F3b, cyclo[-yorn′(AMBF3(methyl(1H-1,2,3-triazol-4-yl)-rG-4-amino)benzoyl-)RNaIG]] (cyclo([2Nal]G[dY][dNMeOrn]([4Abz-Gly-X3])R))
- IC50 (human CXCR4; [2]): 2.4 ± 0.8 nM

Molecule: CN1C(=O)[C@@H](Cc2ccc(O)c(I)c2)NC(=O)CNC(=O)[C@H](Cc2ccc3ccccc3c2)NC(=O)[C@H](CCCNC(=N)N)NC(=O)[C@H]1CCCNC(=O)c1ccc(NC(=O)CNC(=O)[C@H](CCCCN)n2cc(C[N+](C)(C)C[B-](F)(F)F)nn2)cc1 [F4, cyclo[i-yorn′(AMBF3(methyl(1H-1,2,3-triazol-4-yl)-kG-4-amino)benzoyl-)RNaIG]] (cyclo([2Nal]G[dTyr(3-I)][dNMeOrn]([4Abz-Gly-X2])R))
- IC50 (human CXCR4; [2]): 3.8 ± 0.9 nM

Molecule: CC(=O)c1ccc(NC(=O)[C@@H](C)NC(=O)[C@@H](CCCNC(=N)N)NC(=O)[C@@H](CNC(=O)CO/N=C\c2ccc(F)cc2)NC(=O)CCS[C@H]2OC(CO)[C@@H](O[C@@H]3OC(CO)[C@@H](O)C(O)C3O)C(O)C2O)cc1 (some centres unmarked) [F5]
- IC50 (human CXCR4; [3]): 4.6 ± 0.7 nM

Molecule: CN1C(=O)[C@H](Cc2ccc(O)c(I)c2)NC(=O)CNC(=O)[C@@H](Cc2ccc3ccccc3c2)NC(=O)[C@@H](CCCNC(=N)N)NC(=O)[C@@H]1CCCNC(=O)c1ccc(NC(=O)[C@@H](CC(=O)O)NC(=O)CN2CCN(CC(=O)O)CCN(CC(=O)O)CCN(CC(=O)O)CC2)cc1 [P1]
- IC50 (human CXCR4; [4]): 106 ± 10 nM
- IC50 (human CXCR4; [5]): 106 ± 10 nM

Molecule: CN1C(=O)[C@@H](Cc2ccc(O)c(I)c2)NC(=O)CNC(=O)[C@H](Cc2ccc3ccccc3c2)NC(=O)[C@H](CCCNC(=N)N)NC(=O)[C@H]1CCCNC(=O)c1ccc(NC(=O)CNC(=O)[C@H](CN)NC(=O)CN2CCN(CC(=O)O)CCN(CC(=O)O)CCN(CC(=O)O)CC2)cc1 [P2] (cyclo([2Nal]G[dTyr(3-I)][dNMeOrn]([4Abz-Gly-Dap-DOTA])R))
- IC50 (human CXCR4; [6]): 3.6 ± 0.7 nM
- IC50 (human CXCR4; [7]): 4.1 ± 1.3 nM
- IC50 (human CXCR4; [8]): 3.6 ± 0.7 nM

Molecule: CN1C(=O)[C@@H](Cc2ccc(O)c(I)c2)NC(=O)CNC(=O)[C@H](Cc2ccc3ccccc3c2)NC(=O)[C@H](CCCNC(=N)N)NC(=O)C1CCCNC(=O)c1ccc(NC(=O)CNC(=O)[C@H](CCCCN)NC(=O)CN2CCN(CC(=O)O)CCN(CC(=O)O)CCN(CC(=O)O)CC2)cc1 (stereo partly drawn) [P3] (cyclo([2Nal]G[dTyr(3-I)][ξNMeOrn]([4Abz-Gly-Lys-DOTA])R))
- IC50 (human CXCR4; Table 1b, ^natBi metal complexes, Jurkat cells, [^125I]FC-131, read-out: IC50 [nM] to hCXCR4 [^natBi]): 38 ± 25 nM
- IC50 (human CXCR4; [6]): 2.4 ± 0.1 nM
- IC50 (human CXCR4; [4]): 3.6 ± 1.1 nM
- IC50 (human CXCR4; [7]): 2.4 ± 0.2 nM
- IC50 (human CXCR4; [8]): 2.4 ± 0.1 nM
- IC50 (human CXCR4; [5]): 3.6 ± 1.1 nM

Molecule: CN1C(=O)[C@@H](Cc2ccc(O)cc2)NC(=O)CNC(=O)[C@H](Cc2ccc3ccccc3c2)NC(=O)[C@H](CCCNC(=N)N)NC(=O)C1CCCNC(=O)c1ccc(NC(=O)CNC(=O)[C@H](CCCCN)NC(=O)CN2CCN(CC(=O)O)CCN(CC(=O)O)CCN(CC(=O)O)CC2)cc1 (stereo partly drawn) [P3b] (cyclo([2Nal]G[dY][ξNMeOrn]([4Abz-Gly-Lys-DOTA])R))
- IC50 (human CXCR4; [6]): 8.9 ± 3.8 nM
- IC50 (human CXCR4; [4]): 8 ± 3.1 nM
- IC50 (human CXCR4; [7]): 6.3 ± 2.5 nM
- IC50 (human CXCR4; [8]): 8.9 ± 3.8 nM
- IC50 (human CXCR4; [5]): 8 ± 3.1 nM

Molecule: CC(=O)c1ccc(NC(=O)[C@@H](C)NC(=O)[C@@H](CCCNC(=N)N)NC(=O)[C@@H](CO)NC(=O)[C@@H](CO)NC(=O)[C@@H](CO)NC(=O)CS)cc1 [T1] (Mercaptoacetyl-[dS][dS][dS][dR][dA]-X6)
- IC50 (human CXCR4; [3]): 22.9 ± 3.9 nM

Molecule: C[C@@H](NC(=O)[C@@H](CCCNC(=N)N)NC(=O)[C@H](CC(=O)O)NC(=O)[C@H](CC(=O)O)NC(=O)[C@H](CC(=O)O)NC(=O)CS)C(=O)Nc1ccc(C(=O)O)cc1 [T2] (Mercaptoacetyl-DDD[dR][dA][4Abz]-OH)
- IC50 (human CXCR4; [3]): 85.7 ± 5.1 nM
- logP [1]: −2.2

Molecule: C[C@@H](NC(=O)[C@@H](CCCNC(=N)N)NC(=O)[C@H](CN)NC(=O)[C@H](CN)NC(=O)[C@H](CN)NC(=O)CS)C(=O)Nc1ccc(C(=O)O)cc1 [T3] (Mercaptoacetyl-[Dap][Dap][Dap][dR][dA][4Abz]-OH)
- IC50 (human CXCR4; [3]): 18.8 ± 8.5 nM
- logP [1]: −1.5

Molecule: C[C@@H](NC(=O)[C@@H](CCCNC(=N)N)NC(=O)[C@H](CO)NC(=O)[C@H](COP(=O)(O)O)NC(=O)[C@H](CO[C@H]1OC(CO)[C@H](O)C(O)C1O)NC(=O)CS)C(=O)Nc1ccc(C(=O)O)cc1 (some centres unmarked) [T4] (Mercaptoacetyl-S(X1)[pS]S[dR][dA][4Abz]-OH)
- IC50 (human CXCR4; [3]): 213 ± 22 nM
- logP [1]: −2.2

Molecule: CN1C(=O)[C@@H](Cc2ccc(O)cc2)NC(=O)CNC(=O)[C@H](Cc2ccc3ccccc3c2)NC(=O)[C@H](CCCNC(=N)N)NC(=O)[C@H]1CCCNC(=O)c1ccc(CNC(=O)CN2CCN(CC(=O)O)CCN(CC(=O)O)CCN(CC(=O)O)CC2)cc1 [compound 3, cyclo(D-Tyr^1-D-[NMe]Orn^2(AMBS-DOTA)-Arg^3-Nal^4-Gly^5), reference compound] (cyclo([dY][dNMeOrn]([4Amb-DOTA])R[2Nal]G))
- IC50 (murine CXCR4): > 1000 nM

Molecule: cyclo[i-yorn′(DOTA-ra-(4-amino)benzoyl-)RNaIG [P5]
- increase in affinity compared to P2 (human CXCR4; hCXCR4): almost two-fold

Molecule: cyclo[i-yorn′([^natLu]DOTA-dapG-(4-amino)benzoyl-)RNaIG [^natLu-P2]
- improvement of binding affinity by insertion of cationic amino acids in the linker (human CXCR4; hCXCR4, versus ligand with glycine linker only): almost two-fold

Molecule: cyclo[i-yorn′([^natLu]DOTA-rG-(4-amino)benzoyl-)RNaIG [^natLu-P4]
- mIC50[nM] ^natLu complexes and murine CXCR4 (murine CXCR4; ^natLu complexes, Eμ-Myc1080 mouse B-cell lymphoma cells, [^125I]CPCR4.3, mean ± SD (n = 3)): 37.1 ± 2.9 nM
